For one data set, the system named is Mtb H37Rv strain. Put plainly: Mtb H37Rv assay, resazurin microtiter-based assay (REMA). Format: cell-based, Mycobacterium tuberculosis. The settings on record: REMA plate method, 90% inhibition with respect to growth control. Background: Alamar Blue is a resazurin reagent that responds to reducing activity.
The target of data set [1] is Mtb InhA (enoyl acyl carrier protein reductase) (Mycobacterium tuberculosis, UniProt P9WGR1). Description: Mtb InhA enzyme inhibition assay (fluorescence based). Format: biochemical. The method, then:
Mtb InhA enzyme inhibition assay (Fluorescence based assay)
The compounds were dissolved in 100% dimethyl sulfoxide (DMSO). […] The 50μL enzyme reaction contained PIPES- 30 mM, pH 7.5, NaCl - 50 mM, 0.005% Brij-35, DTT - 2mM, and EDTA- 0.1mM. The enzyme reaction was started by the addition of […] of dodecyl CoA synthesized in-house and the depletion of NADH was followed by measuring the fluorescence of NADH kinetically in the reaction for 30min at excitation at 340nm and emission at 420nm using Tecan Saffire II reader. The concentration at which 50% inhibition in enzyme activity was observed was reported as the IC50.

Where [2] appears, read: read-out: InhA IC50, InhA 1.25 nM, 0.050 mM NADH, NADH fluorescence.

Experimental findings from article PMC7059037, “Development of 1,2,4-Triazole-5-Thione Derivatives as Potential Inhibitors of Enoyl Acyl Carrier Protein Reductase (InhA) in Tuberculosis” (Iranian Journal of Pharmaceutical Research : IJPR, 2019) are described below.

In brackets after ≈: the same amount, converted by molar mass. Like-named read-outs stand apart in the source and are kept apart here.

Mtb InhA (enoyl acyl carrier protein reductase), sequence (P9WGR1 whole entry, looked up): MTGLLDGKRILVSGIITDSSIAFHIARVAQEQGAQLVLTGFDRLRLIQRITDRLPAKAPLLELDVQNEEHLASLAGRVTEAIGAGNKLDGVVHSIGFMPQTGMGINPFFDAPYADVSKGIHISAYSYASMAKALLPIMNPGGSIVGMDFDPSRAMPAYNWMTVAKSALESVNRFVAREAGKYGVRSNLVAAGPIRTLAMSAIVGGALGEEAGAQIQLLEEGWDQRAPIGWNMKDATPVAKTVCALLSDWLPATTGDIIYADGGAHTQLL

Turning to `Nn1c(-c2ccncc2)nn(CC(=O)Nc2ccccc2)c1=S` [Compound 6a, 2-(4-Amino-3-pyridin-4-yl-5-thioxo-4,5-dihydro-[1,2,4]triazol-1-yl)-N-phenyl acetamide], the melting point was 242 to 244 °C. Further, in the data set on Mtb H37Rv strain (Mycobacterium tuberculosis), the MIC was determined as 12.5 µM (≈ 4.08 µg/mL). In data set [1] (setting [2]), the IC50 came to 0.68 µM. `Cc1ccc(NC(=O)Cn2nc(-c3ccncc3)n(N)c2=S)cc1` [Compound 6b, 2-(4-amino-3-(pyridin-4-yl)-5-thioxo-4,5-dihydro-1H-1,2,4-triazol-1-yl)-N-(p-tolyl)acetamide] gave a melting point of 237 to 238 °C. For the same compound, the minimal inhibitory concentration (MIC) in the data set on Mtb H37Rv strain (Mycobacterium tuberculosis) worked out at 0.19 µM (≈ 0.0647 µg/mL). For the same compound, the MIC against Mtb H37Rv strain is given as 0.19 µM (≈ 0.0647 µg/mL). Also, the IC50 in data set [1] came to 0.09 µM. Regarding `Nn1c(-c2ccncc2)nn(CC(=O)Nc2ccc(Br)cc2F)c1=S` [Compound 6c, 2-(4-amino-3-(pyridin-4-yl)-5-thioxo-4,5-dihydro-1H-1,2,4-triazol-1-yl)-N-(4-bromo-2-fluorophenyl)acetamide], the melting point was 276 to 278 °C. In addition, the minimum inhibitory concentration (MIC) with Mtb H37Rv strain (Mycobacterium tuberculosis) amounted to 3.12 µM (≈ 1.32 µg/mL). The compound further had an IC50 in data set [1] of 6.15 µM. `COc1ccc(NC(=O)Cn2nc(-c3ccncc3)n(N)c2=S)cc1` [Compound 6d, 2-(4-Amino-3-(pyridin-4-yl)-5-thioxo-4,5-dihydro-1H[1,2,4]triazol-1-yl)-N-(4-methoxyphenyl) acetamide] registered a melting point of 256 to 258 °C. The compound further registered an MIC with Mtb H37Rv strain (Mycobacterium tuberculosis) of 25 µM (≈ 8.91 µg/mL). The IC50 in data set [1] (setting [2]) came out at 10.8 µM. `Nn1c(-c2ccncc2)nn(CC(=O)Nc2cccc(C(F)(F)F)c2)c1=S` [Compound 6e, 2-(4-Amino-3-(pyridin-4-yl)-5-thioxo-4,5-dihydro-1H[1,2,4]triazol-1-yl)-N-(3-trifluoromethylphenyl) acetamide] showed a melting point of 242 to 244 °C. This compound also registered an MIC in the data set with Mtb H37Rv strain (Mycobacterium tuberculosis) of 12.5 µM (≈ 4.93 µg/mL). In addition, the half-inhibitory concentration (IC50) in data set [1] (setting [2]) came to 5.95 µM. The matching figures for `Nn1c(-c2ccncc2)nn(CC(=O)Nc2ccc(Cl)cc2)c1=S` [Compound 6f, 2-(4-Amino-(3-pyridin-4-yl)-5-thioxo-4,5-dihydro-1H[1,2,4]triazol-1-yl)-N-(4-chlorophenyl) acetamide]: 218 to 220 °C, 12.5 µM (≈ 4.51 µg/mL) and 1.2 µM. Take `Cc1ccc(NC(=O)Cn2nc(-c3ccncc3)n(N)c2=S)cc1C` [Compound 6g, 2-(4-Amino-(3-pyridin-4-yl)-5-thioxo-4,5-dihydro-1H[1,2,4]triazol-1-yl)-N-(3,4-dimethylphenyl) acetamide]: the melting point fell in the range of 242 to 244 °C. It took 0.39 µM (≈ 0.138 µg/mL) to inhibit growth in the data set on Mtb H37Rv strain (Mycobacterium tuberculosis) (MIC). Besides, the IC50 in data set [1] (setting [2]) came out at 0.19 µM.

`Cc1ccc(NC(=O)Cn2nc(-c3ccncc3)n(N)c2=S)cc1Cl` [Compound 6h, 2-(4-Amino-(3-pyridin-4-yl)-5-thioxo-4,5-dihydro-1H[1,2,4]triazol-1-yl)-N-(3-chloro-4-methylphenyl) acetamide]: the melting point lay within 214 to 216 °C. This compound displayed an MIC in the data set on Mtb H37Rv strain (Mycobacterium tuberculosis) of 6.25 µM (≈ 2.34 µg/mL). The IC50 in data set [1] (setting [2]) amounted to 0.34 µM. In the case of `Cc1cccc(NC(=O)Cn2nc(-c3ccncc3)n(N)c2=S)c1` [Compound 6i, 2-(4-Amino-(3-pyridin-4-yl)-5-thioxo-4,5-dihydro-1H[1,2,4]triazol-1-yl)-N-(3-methylphenyl)acetamide], the melting point was 225 to 227 °C. The compound further returned a minimal inhibitory concentration (MIC) in the data set with Mtb H37Rv strain (Mycobacterium tuberculosis) of 0.39 µM (≈ 0.133 µg/mL). The compound also displayed a half-maximal inhibitory concentration (IC50) in data set [1] of 0.12 µM. With `Nn1c(-c2ccncc2)nn(CC(=O)Nc2cc(C(F)(F)F)ccc2Cl)c1=S` [Compound 6k, 2-(4-Amino-(3-pyridin-4-yl)-5-thioxo-4,5-dihydro-1H[1,2,4]triazol-1-yl)-N-(2-chloro-5-trifluoromethylphenyl) acetamide], the melting point was in the range of 184 to 186 °C. The same measure, in the same setting: as for `COc1cccc(NC(=O)Cn2nc(-c3ccncc3)n(N)c2=S)c1` [Compound 6l, 2-(4-Amino-(3-pyridin-4-yl)-5-thioxo-4,5-dihydro-1H[1,2,4]triazol-1-yl)-N-(3-methoxyphenyl) acetamide], the figure is 222 to 224 °C; as for `Nn1c(-c2ccncc2)nn(CC(=O)Nc2ccc(F)cc2)c1=S` [Compound 6m, 2-(4-Amino-(3-pyridin-4-yl)-5-thioxo-4,5-dihydro-1H[1,2,4]triazol-1-yl)-N-(4-fluorophenyl) acetamide], 227 to 229 °C. Still for that read-out and setting: as for `Nn1c(-c2ccncc2)nn(CC(=O)Nc2ccc(C(F)(F)F)cc2)c1=S` [Compound 6n, 2-(4-Amino-(3-pyridin-4-yl)-5-thioxo-4,5-dihydro-1H[1,2,4]triazol-1-yl)-N-(4-trifluoromethylphenyl) acetamide], the figure is 227 to 229 °C. Regarding `Cc1ccnc(NC(=O)Cn2nc(-c3ccncc3)n(N)c2=S)c1` [Compound 6q, 2-(4-Amino-(3-pyridin-4-yl)-5-thioxo-4,5-dihydro-1H[1,2,4]triazol-1-yl)-N-(4-methylpyridin-2-yl) acetamide], the melting point was 217 to 219 °C. The same measure, in the same setting: as for `Nn1c(-c2ccncc2)nn(CC(=O)Nc2ncccn2)c1=S` [Compound 6r, 2-(4-Amino-(3-pyridin-4-yl)-5-thioxo-4,5-dihydro-1H[1,2,4]triazol-1-yl)-N-pyrimidin-2-yl acetamide], the figure is 205 to 207 °C; as for `Cc1cc(NC(=O)Cn2nc(-c3ccncc3)n(N)c2=S)no1` [Compound 6s, 2-(4-Amino-(3-pyridin-4-yl)-5-thioxo-4,5-dihydro-1H[1,2,4]triazol-1-yl)-N-(5-methylisoxazol-3-yl) acetamide], 242 to 244 °C; as for `Cc1cccc2sc(NC(=O)Cn3nc(-c4ccncc4)n(N)c3=S)nc12` [Compound 6t, 2-(4-Amino-(3-pyridin-4-yl)-5-thioxo-4,5-dihydro-1H[1,2,4]triazol-1-yl)-N-(4-methylbenzothiazol-3-yl) acetamide], 243 to 245 °C. The same measure, in the same setting: with `Nn1c(-c2ccncc2)nn(CC(=O)Nc2nccs2)c1=S` [Compound 6u, 2-(4-Amino-(3-pyridin-4-yl)-5-thioxo-4,5-dihydro-1H[1,2,4]triazol-1-yl)-N-thiazol-2-yl acetamide] the figure was 253 to 255 °C. Same read-out and setting: with `Cc1cnc(NC(=O)Cn2nc(-c3ccncc3)n(N)c2=S)s1` [Compound 6v, 2-(4-Amino-(3-pyridin-4-yl)-5-thioxo-4,5-dihydro-1H[1,2,4]triazol-1-yl)-N-(5-methylthiazol-2-yl) acetamide] the figure was 250 to 252 °C; with `O=C(Cn1nc(-c2ccncc2)oc1=S)Nc1ccccn1` [Compound 7a, 2-(5-pyridin-4-yl-2-thioxo-[1,3,4]oxadiazol-3-yl)-N-pyridin-2-yl acetamide], 216 to 218 °C. For the compound `O=C(Cn1nc(-c2ccncc2)oc1=S)Nc1nccs1` [Compound 7c, 2-(5-pyridin-4-yl-2-thioxo-[1,3,4]oxadiazol-3-yl)-N-thiazol-2-yl acetamide], the melting point was 244 to 246 °C. The same measure, in the same setting: with `O=C(Cn1nc(-c2ccncc2)oc1=S)Nc1nc2ccccc2s1` [Compound 7f, 2-(5-pyridin-4-yl-2-thioxo-[1,3,4]oxadiazol-3-yl)-N-benzothiazol-2-yl acetamide] the figure was 206 to 208 °C. Compound `NNC(=O)c1ccncc1` [INH, isoniazid, reference compound] yielded an MIC against Mtb H37Rv strain (Mycobacterium tuberculosis) of 0.05 µM (≈ 0.00686 µg/mL).

As a reminder, the MIC is the lowest concentration found to suppress growth. Read a low MIC as a more susceptible organism. The IC50 is the midpoint of a concentration-inhibition curve. For orientation: melting point means the temperature of the solid-liquid transition.
